ChEMBL document CHEMBL1201862, “PubChem BioAssay data set” (2004)
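All cell lines were grown in 96-well plates and treated with compound for 48 hours. Abbreviation: GI50, concentration required for 50% inhibition of growth.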 Calls of active or inactive are those of the source. No stated cut-off is given here; in the data, active = GI50 up to about 1.1 µM and inactive = higher.

How the values were obtained:
Assay in all cases: NCI tumour cell line growth inhibition, 48 h
BT-549 = system: BT-549
EKVX = system: EKVX
HL-60 = system: HL-60
HOP-62 = system: HOP-62
HT-29 = system: HT-29
KM12 = system: KM12
MDA-MB-435 = system: MDA-MB-435
Malme-3M = system: Malme-3M
NCI-H460 = system: NCI-H460
OVCAR-8 = system: OVCAR-8
RPMI-8226 = system: RPMI-8226
SF-268 = system: SF-268
SF-539 = system: SF-539
SK-MEL-28 = system: SK-MEL-28
SK-MEL-2 = system: SK-MEL-2
SNB-19 = system: SNB-19
SNB-75 = system: SNB-75
SW-620 = system: SW-620
T47D = system: T47D
RXF 393 = system: RXF 393

Measured: GI50

Cc1cn([C@@H]2O[C@H](CO[Si](C)(C)C(C)(C)C)[C@]3(O[C@H]3C(=O)NN)[C@H]2O[Si](C)(C)C(C)(C)C)c(=O)[nH]c1=O
inactive: BT-549 5.38 µM | EKVX 8.61 µM | HL-60 3.13 µM | HOP-62 14.4 µM | HT-29 2.9 µM | KM12 7.67 µM | MDA-MB-435 7.11 µM | Malme-3M 3.39 µM | NCI-H460 4.31 µM | OVCAR-8 6.62 µM | RPMI-8226 4.29 µM | SF-268 3.59 µM | SF-539 4.75 µM | SK-MEL-28 10.3 µM | SK-MEL-2 6.37 µM | SNB-19 7.66 µM | SNB-75 7.98 µM | SW-620 5.73 µM | T47D 2.36 µM

O=C(COc1cc(=O)oc2ccccc12)c1ccccc1
inactive: BT-549 24.6 µM | EKVX > 100 µM | HL-60 > 100 µM | HOP-62 37.8 µM | HT-29 22.6 µM | KM12 37.9 µM | Malme-3M > 100 µM | NCI-H460 > 100 µM | OVCAR-8 33 µM | RPMI-8226 > 100 µM | RXF 393 > 10 µM | SF-268 48.5 µM | SF-539 21.5 µM | SK-MEL-28 32.3 µM | SK-MEL-2 30.7 µM | SNB-19 21.7 µM | SNB-75 26.4 µM | SW-620 44.8 µM | T47D 25.4 µM

NN/C(=N\S(=O)(=O)c1cc2ccccc2o1)Nc1ccc(Cl)cc1
inactive: BT-549 57.7 µM | EKVX 91.2 µM | HL-60 > 100 µM | HOP-62 48.8 µM | HT-29 > 100 µM | KM12 > 100 µM | Malme-3M > 100 µM | NCI-H460 > 100 µM | OVCAR-8 51.1 µM | RPMI-8226 > 100 µM | RXF 393 20.7 µM | SF-268 33.9 µM | SF-539 > 100 µM | SK-MEL-28 > 100 µM | SK-MEL-2 > 100 µM | SNB-19 60.8 µM | SNB-75 13.1 µM | SW-620 > 100 µM | T47D 28.2 µM

C=CCOc1ccc(C(/N=N\c2ccc(Cl)cc2)=N/NC(=O)c2ccccc2)cc1OC
inactive: BT-549 20.4 µM | EKVX > 100 µM | HL-60 33.8 µM | HOP-62 > 100 µM | HT-29 52.7 µM | KM12 38.5 µM | MDA-MB-435 34.7 µM | Malme-3M 51.3 µM | NCI-H460 36.1 µM | OVCAR-8 37.5 µM | SF-268 > 100 µM | SK-MEL-28 19 µM | SK-MEL-2 > 100 µM | SNB-19 > 100 µM | SNB-75 60.3 µM | SW-620 > 100 µM | T47D 22 µM

Cc1ccc(S(=O)(=O)N/N=C2/C3CC4CCC2C4C3)cc1 (stereo not drawn)
inactive: BT-549 > 100 µM | EKVX > 100 µM | HOP-62 > 100 µM | HT-29 > 100 µM | KM12 > 100 µM | MDA-MB-435 > 100 µM | Malme-3M > 100 µM | NCI-H460 > 100 µM | OVCAR-8 > 100 µM | RPMI-8226 > 100 µM | RXF 393 > 100 µM | SF-268 > 100 µM | SF-539 > 100 µM | SK-MEL-28 > 100 µM | SNB-75 > 100 µM | SW-620 > 100 µM | T47D > 100 µM

COc1cc2c(cc1OC)C1Cc3ccccc3CCN1CC2 (stereo not drawn)
inactive: BT-549 > 100 µM | EKVX > 100 µM | HL-60 > 100 µM | HOP-62 > 100 µM | HT-29 48.1 µM | KM12 > 100 µM | MDA-MB-435 > 100 µM | Malme-3M > 100 µM | NCI-H460 > 100 µM | OVCAR-8 > 100 µM | RPMI-8226 > 100 µM | SF-268 > 100 µM | SF-539 > 100 µM | SK-MEL-28 > 100 µM | SK-MEL-2 > 100 µM | SNB-19 > 100 µM | SNB-75 68.5 µM | SW-620 > 100 µM | T47D > 100 µM

COc1ccc([S+]([O-])Cc2cc(OC)ccc2OC)cc1 (stereo not drawn)
inactive: BT-549 > 100 µM | EKVX > 100 µM | HOP-62 > 100 µM | HT-29 > 100 µM | KM12 > 100 µM | MDA-MB-435 > 100 µM | Malme-3M > 100 µM | NCI-H460 > 100 µM | OVCAR-8 > 100 µM | RXF 393 > 100 µM | SF-268 > 100 µM | SF-539 > 100 µM | SK-MEL-28 > 100 µM | SNB-19 > 100 µM | SNB-75 > 100 µM | SW-620 > 100 µM | T47D > 100 µM

Cc1ccc2c(sc(-c3ccc4c(c3)sc(-c3ccc(N(C)C)cc3)[n+]4C)[n+]2C)c1S(=O)(=O)O.Cc1ccc2c(sc(-c3ccc4c(c3)sc(-c3ccc5c(c3)sc(-c3ccc(N(C)C)cc3)[n+]5C)[n+]4C)[n+]2C)c1S(=O)(=O)O
inactive: BT-549 30.8 µM | EKVX 76 µM | HL-60 52.8 µM | HT-29 > 100 µM | KM12 73.1 µM | MDA-MB-435 > 100 µM | NCI-H460 10 µM | OVCAR-8 > 100 µM | RPMI-8226 80.2 µM | SF-268 > 100 µM | SF-539 > 100 µM | SK-MEL-28 > 100 µM | SK-MEL-2 > 100 µM | SNB-19 > 100 µM | SNB-75 > 100 µM | SW-620 > 100 µM | T47D 85.9 µM

CC1=CC(=O)C(=CN2C(=O)/C(=C\c3cccnc3)NC2=S)C(=O)O1
inactive: BT-549 > 100 µM | EKVX > 100 µM | HL-60 54.3 µM | HOP-62 > 100 µM | HT-29 > 100 µM | KM12 > 100 µM | MDA-MB-435 > 100 µM | NCI-H460 > 100 µM | OVCAR-8 > 100 µM | SF-539 > 100 µM | SK-MEL-28 > 100 µM | SK-MEL-2 > 100 µM | SNB-19 > 100 µM | SNB-75 > 100 µM | SW-620 > 100 µM | T47D > 100 µM

CCCCOc1ccc(S(=O)(=O)/N=C(\NN)Nc2ccc(Cl)cc2)cc1
inactive: BT-549 > 100 µM | EKVX 45.4 µM | HL-60 31 µM | HOP-62 20.4 µM | HT-29 22.3 µM | KM12 32.7 µM | Malme-3M 26.9 µM | NCI-H460 16.4 µM | OVCAR-8 19 µM | RPMI-8226 30.1 µM | RXF 393 16.7 µM | SF-268 17.4 µM | SF-539 17.7 µM | SK-MEL-28 43.7 µM | SK-MEL-2 > 100 µM | SNB-19 53.5 µM | SNB-75 12.2 µM | SW-620 29.4 µM | T47D 16.2 µM

CC(=O)c1cc2ccccc2oc1=O [3-ACETYLCOUMARIN]
inactive: BT-549 > 100 µM | EKVX > 100 µM | HL-60 > 100 µM | HOP-62 > 100 µM | HT-29 > 100 µM | KM12 > 100 µM | MDA-MB-435 > 100 µM | Malme-3M > 100 µM | NCI-H460 > 100 µM | OVCAR-8 > 100 µM | RPMI-8226 > 100 µM | RXF 393 > 100 µM | SF-268 > 100 µM | SF-539 > 100 µM | SK-MEL-28 > 100 µM | SK-MEL-2 > 100 µM | SNB-19 > 100 µM | SNB-75 > 100 µM | SW-620 > 100 µM
